Assay results from patent US20260184710A1, “CASITAS B-LINEAGE LYMPHOMA PROTOONCOGENE B (CBL-B) DEGRADING COMPOUNDS AND ASSOCIATED METHODS OF USE” (Arvinas Operations, Inc., priority 2022, published 2026).

Tests used:
Cbl-b [1] = target: T1, Cbl-b (Homo sapiens, UniProt Q13191); test: Cbl-b Degradation Method A (FACS, anti-Cbl-b antibody staining); format: cell-based; details: Cbl-b-HiBit KI Jurkat Cells, incubated at least 20 hours; for DC50: half maximal degradation, read-out: Cbl-b Degredation Method A IC50; for Dmax: Jurkat, maximum degradation observed, read-out: Cbl-b Degredation Method A Dmax (%)
T1 construct: Cbl-b-HiBit KI Jurkat Cells were purchased from Promega; host or cells: Cbl-b-HiBiT knock-in Jurkat cells
How it was run: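 Readout is flow cytometry of fixed, permeabilized cells immunostained for Cbl-b (primary 1:200, AF488 secondary). Cells were Cbl-b-HiBit knock-in Jurkat, exposed to compound ≥20 h at 37 °C; half-maximal degradation concentration (DC50) and maximal degradation (Dmax) calculated relative to control.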

Cbl-b [2] = target: T1, Cbl-b; test: Cbl-b Degradation Method B (Nano-Glo HiBiT lytic detection); format: cell-based; details: Cbl-b-HiBit KI Jurkat Cells, incubated at least 6-24 hours; for DC50: half maximal degradation, read-out: Cbl-b Degredation Method B IC50; for Dmax: maximum degradation observed, read-out: Cbl-b Degredation Method B Dmax (%)
How it was run: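 An 11-point, 3-fold compound dilution was applied for 6-24 hours to Jurkat cells carrying HiBiT-tagged endogenous Cbl-b. Lytic HiBiT luminescence quantified residual protein. Outputs are DC50 and Dmax relative to DMSO control.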

T1 sequence (Q13191 whole entry): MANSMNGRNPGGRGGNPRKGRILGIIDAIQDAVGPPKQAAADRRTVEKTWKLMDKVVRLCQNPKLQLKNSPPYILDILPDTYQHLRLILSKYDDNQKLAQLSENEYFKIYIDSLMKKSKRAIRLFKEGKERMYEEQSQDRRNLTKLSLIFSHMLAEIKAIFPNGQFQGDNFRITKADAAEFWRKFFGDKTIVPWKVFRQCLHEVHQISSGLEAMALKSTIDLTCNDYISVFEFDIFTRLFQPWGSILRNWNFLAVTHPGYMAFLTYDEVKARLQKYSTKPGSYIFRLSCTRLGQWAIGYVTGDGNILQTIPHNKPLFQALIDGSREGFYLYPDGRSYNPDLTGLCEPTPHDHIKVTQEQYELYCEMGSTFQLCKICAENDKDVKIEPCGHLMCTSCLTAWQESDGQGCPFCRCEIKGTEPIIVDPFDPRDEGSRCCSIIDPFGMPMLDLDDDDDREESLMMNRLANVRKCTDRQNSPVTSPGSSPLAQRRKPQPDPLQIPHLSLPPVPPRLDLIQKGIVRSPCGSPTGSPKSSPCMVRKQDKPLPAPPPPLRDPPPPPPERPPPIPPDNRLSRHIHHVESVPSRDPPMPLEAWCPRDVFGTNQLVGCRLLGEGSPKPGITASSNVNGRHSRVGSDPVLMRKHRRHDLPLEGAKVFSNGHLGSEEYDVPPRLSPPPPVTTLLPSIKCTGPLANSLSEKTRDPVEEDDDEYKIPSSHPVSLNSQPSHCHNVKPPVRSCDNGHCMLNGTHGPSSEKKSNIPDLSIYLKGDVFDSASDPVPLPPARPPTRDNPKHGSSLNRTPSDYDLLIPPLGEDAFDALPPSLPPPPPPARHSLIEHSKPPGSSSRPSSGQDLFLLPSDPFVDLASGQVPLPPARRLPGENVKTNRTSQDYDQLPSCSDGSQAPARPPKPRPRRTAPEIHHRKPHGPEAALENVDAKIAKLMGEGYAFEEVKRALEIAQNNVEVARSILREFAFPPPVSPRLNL

`Cn1cnnc1CC1(c2cccc(N3Cc4c(cc(CN5CCC[C@H](CN6CCC(CN7CC8(C7)CN(c7ccc9c(c7)C(=O)N(C7CCC(=O)NC7=O)C9=O)C8)CC6)C5)cc4C(F)(F)F)C3=O)c2)COC1` (stereo partly drawn) [Example 114, 2-(2,6-dioxopiperidin-3-yl)-5-{6-[(1-{[(3R)-1-{[2-(3-{3-[(4-methyl-4H-1,2,4-triazol-3-yl)methyl]oxetan-3-yl}phenyl)-3-oxo-7-(trifluoromethyl)-2,3-dihydro-1H-isoindol-5-yl]methyl}piperidin-3-yl]methyl}piperidin-4-yl)methyl]-2,6-diazaspiro[3.3]heptan-2-yl}-2,3-dihydro-1H-isoindole-1,3-dione] gave a DC50 (Cbl-b [1]) of 5 to 50 nM, a Dmax (Cbl-b [1]) of under 35% and a DC50 (Cbl-b [2]) of 5 to 50 nM. The Dmax (Cbl-b [2]) was under 35%.
`Cn1cnnc1CC1(c2cccc(N3Cc4c(cc(N5CC6(CCN(CC7CCN(c8ccc9c(c8)C(=O)N(C8CCC(=O)NC8=O)C9=O)CC7)CC6)C5)cc4C(F)(F)F)C3=O)c2)COC1` (stereo not drawn) [Example 115, 2-(2,6-dioxopiperidin-3-yl)-5-[4-({2-[2-(3-{3-[(4-methyl-4H-1,2,4-triazol-3-yl)methyl]oxetan-3-yl}phenyl)-3-oxo-7-(trifluoromethyl)-2,3-dihydro-1H-isoindol-5-yl]-2,7-diazaspiro[3.5]nonan-7-yl}methyl)piperidin-1-yl]-2,3-dihydro-1H-isoindole-1,3-dione] gave a DC50 (Cbl-b [1]) of 5 to 50 nM, a Dmax (Cbl-b [1]) of 35 to 70% and a DC50 (Cbl-b [2]) of 5 to 50 nM. For the same compound, the Dmax (Cbl-b [2]) was 35 to 70%.
For `Cn1cnnc1CC1(c2cccc(N3Cc4c(cc(N5CC6(CCN(c7cc8c(cc7F)C(=O)N(C7CCC(=O)NC7=O)C8=O)CC6)C5)cc4C(F)(F)F)C3=O)c2)COC1` (stereo not drawn) [Example 116, 2-(2,6-dioxopiperidin-3-yl)-5-fluoro-6-{2-[2-(3-{3-[(4-methyl-4H-1,2,4-triazol-3-yl)methyl]oxetan-3-yl}phenyl)-3-oxo-7-(trifluoromethyl)-2,3-dihydro-1H-isoindol-5-yl]-2,7-diazaspiro[3.5]nonan-7-yl}-2,3-dihydro-1H-isoindole-1,3-dione], the DC50 (Cbl-b [1]) was over 500 nM and the DC50 (Cbl-b [2]) was over 500 nM.
In the case of `Cn1cnnc1CC1(c2cccc(N3Cc4c(cc(N5CC6(CCN(CC7CCN(c8ccc9c(c8)CN(C8CCC(=O)NC8=O)C9=O)CC7)CC6)C5)cc4C(F)(F)F)C3=O)c2)COC1` (stereo not drawn) [Example 117, 3-{5-[4-({2-[2-(3-{3-[(4-methyl-4H-1,2,4-triazol-3-yl)methyl]oxetan-3-yl}phenyl)-3-oxo-7-(trifluoromethyl)-2,3-dihydro-1H-isoindol-5-yl]-2,7-diazaspiro[3.5]nonan-7-yl}methyl)piperidin-1-yl]-1-oxo-2,3-dihydro-1H-isoindol-2-yl}piperidine-2,6-dione], the DC50 (Cbl-b [1]) is reported as under 5 nM, the Dmax (Cbl-b [1]) is reported as 35 to 70% and the DC50 (Cbl-b [2]) is reported as under 5 nM. It also gave a Dmax (Cbl-b [2]) of 35 to 70%.
For `Cn1cnnc1CC1(c2cccc(N3Cc4c(cc(N5CCC(CC6CCN(c7cc8c(cc7F)C(=O)N(C7CCC(=O)NC7=O)C8=O)CC6)CC5)cc4C(F)(F)F)C3=O)c2)COC1` (stereo not drawn) [Example 118, 2-(2,6-dioxopiperidin-3-yl)-5-fluoro-6-[4-({1-[2-(3-{3-[(4-methyl-4H-1,2,4-triazol-3-yl)methyl]oxetan-3-yl}phenyl)-3-oxo-7-(trifluoromethyl)-2,3-dihydro-1H-isoindol-5-yl]piperidin-4-yl}methyl)piperidin-1-yl]-2,3-dihydro-1H-isoindole-1,3-dione], the DC50 (Cbl-b [1]) was over 500 nM and the DC50 (Cbl-b [2]) was over 500 nM.
In the case of `Cn1cnnc1CC1(c2cccc(N3Cc4c(cc(N5CC6(CCN(CC7CCN(c8cccc9c8CN(C8CCC(=O)NC8=O)C9=O)CC7)CC6)C5)cc4C(F)(F)F)C3=O)c2)COC1` (stereo not drawn) [Example 119, 3-{4-[4-({2-[2-(3-{3-[(4-methyl-4H-1,2,4-triazol-3-yl)methyl]oxetan-3-yl}phenyl)-3-oxo-7-(trifluoromethyl)-2,3-dihydro-1H-isoindol-5-yl]-2,7-diazaspiro[3.5]nonan-7-yl}methyl)piperidin-1-yl]-1-oxo-2,3-dihydro-1H-isoindol-2-yl}piperidine-2,6-dione], the DC50 (Cbl-b [1]) is reported as 5 to 50 nM, the Dmax (Cbl-b [1]) is reported as under 35% and the DC50 (Cbl-b [2]) is reported as under 5 nM. It also gave a Dmax (Cbl-b [2]) of under 35%.
`Cn1cnnc1CC1(c2cccc(N3Cc4c(cc(N5CC(C6CN(c7ccc8c(c7)C(=O)N(C7CCC(=O)NC7=O)C8=O)C6)C5)cc4C(F)(F)F)C3=O)c2)COC1` (stereo not drawn) [Example 121, 2-(2,6-dioxopiperidin-3-yl)-5-{1′-[2-(3-{3-[(4-methyl-4H-1,2,4-triazol-3-yl)methyl]oxetan-3-yl}phenyl)-3-oxo-7-(trifluoromethyl)-2,3-dihydro-1H-isoindol-5-yl]-[3,3′-biazetidin]-1-yl}-2,3-dihydro-1H-isoindole-1,3-dione] showed a DC50 (Cbl-b [1]) of 5 to 50 nM and a DC50 (Cbl-b [2]) of over 500 nM.
Work on `Cn1cnnc1CC1(c2cccc(N3Cc4c(cc(N5CCN(CC6CCN(c7ccc8c(c7)C(=O)N(C7CCC(=O)NC7=O)C8=O)CC6)CC5)cc4C(F)(F)F)C3=O)c2)COC1` (stereo not drawn) [Example 122, 2-(2,6-dioxopiperidin-3-yl)-5-[4-({4-[2-(3-{3-[(4-methyl-4H-1,2,4-triazol-3-yl)methyl]oxetan-3-yl}phenyl)-3-oxo-7-(trifluoromethyl)-2,3-dihydro-1H-isoindol-5-yl]piperazin-1-yl}methyl)piperidin-1-yl]-2,3-dihydro-1H-isoindole-1,3-dione] yielded a DC50 (Cbl-b [1]) of 50 to 500 nM and a DC50 (Cbl-b [2]) of over 500 nM.
With `Cn1cnnc1CC1(c2cccc(N3Cc4c(cc(N5CC6(CN(c7ccc8c(c7)C(=O)N(C7CCC(=O)NC7=O)C8=O)C6)C5)cc4C(F)(F)F)C3=O)c2)COC1` (stereo not drawn) [Example 123, 2-(2,6-dioxopiperidin-3-yl)-5-{6-[2-(3-{3-[(4-methyl-4H-1,2,4-triazol-3-yl)methyl]oxetan-3-yl}phenyl)-3-oxo-7-(trifluoromethyl)-2,3-dihydro-1H-isoindol-5-yl]-2,6-diazaspiro[3.3]heptan-2-yl}-2,3-dihydro-1H-isoindole-1,3-dione] the DC50 (Cbl-b [1]) was 50 to 500 nM, the Dmax (Cbl-b [1]) was 35 to 70% and the DC50 (Cbl-b [2]) was over 500 nM.
Compound `Cn1cnnc1CC1(c2cccc(N3Cc4c(cc(N5CCC(C6CCN(c7ccc8c(c7)C(=O)N(C7CCC(=O)NC7=O)C8=O)CC6)CC5)cc4C(F)(F)F)C3=O)c2)COC1` (stereo not drawn) [Example 124, 2-(2,6-dioxopiperidin-3-yl)-5-{1′-[2-(3-{3-[(4-methyl-4H-1,2,4-triazol-3-yl)methyl]oxetan-3-yl}phenyl)-3-oxo-7-(trifluoromethyl)-2,3-dihydro-1H-isoindol-5-yl]-[4,4′-bipiperidin]-1-yl}-2,3-dihydro-1H-isoindole-1,3-dione] has a DC50 (Cbl-b [1]) of over 500 nM and a DC50 (Cbl-b [2]) of over 500 nM.
`Cn1cnnc1CC1(c2cccc(N3Cc4c(cc(N5CCC6(CCN(c7ccc8c(c7)C(=O)N(C7CCC(=O)NC7=O)C8=O)CC6)CC5)cc4C(F)(F)F)C3=O)c2)COC1` (stereo not drawn) [Example 125, 2-(2,6-dioxopiperidin-3-yl)-5-{9-[2-(3-{3-[(4-methyl-4H-1,2,4-triazol-3-yl)methyl]oxetan-3-yl}phenyl)-3-oxo-7-(trifluoromethyl)-2,3-dihydro-1H-isoindol-5-yl]-3,9-diazaspiro[5.5]undecan-3-yl}-2,3-dihydro-1H-isoindole-1,3-dione] showed a DC50 (Cbl-b [1]) of over 500 nM and a DC50 (Cbl-b [2]) of over 500 nM.
Compound `Cn1cnnc1CC1(c2cccc(N3Cc4c(cc(N5CC6(CCN(c7ccc8c(c7)C(=O)N(C7CCC(=O)NC7=O)C8=O)C6)C5)cc4C(F)(F)F)C3=O)c2)COC1` (stereo not drawn) [Example 126, 2-(2,6-dioxopiperidin-3-yl)-5-{2-[2-(3-{3-[(4-methyl-4H-1,2,4-triazol-3-yl)methyl]oxetan-3-yl}phenyl)-3-oxo-7-(trifluoromethyl)-2,3-dihydro-1H-isoindol-5-yl]-2,6-diazaspiro[3.4]octan-6-yl}-2,3-dihydro-1H-isoindole-1,3-dione] has a DC50 (Cbl-b [1]) of over 500 nM and a DC50 (Cbl-b [2]) of over 500 nM.
Work on `Cn1cnnc1CC1(c2cccc(N3Cc4c(cc(N5CCC6(C5)CN(c5ccc7c(c5)C(=O)N(C5CCC(=O)NC5=O)C7=O)C6)cc4C(F)(F)F)C3=O)c2)COC1` (stereo not drawn) [Example 127, 2-(2,6-dioxopiperidin-3-yl)-5-{6-[2-(3-{3-[(4-methyl-4H-1,2,4-triazol-3-yl)methyl]oxetan-3-yl}phenyl)-3-oxo-7-(trifluoromethyl)-2,3-dihydro-1H-isoindol-5-yl]-2,6-diazaspiro[3.4]octan-2-yl}-2,3-dihydro-1H-isoindole-1,3-dione] yielded a DC50 (Cbl-b [1]) of over 500 nM and a DC50 (Cbl-b [2]) of over 500 nM.
`Cn1cnnc1CC1(c2cccc(N3Cc4c(cc(N5CCC(C6CN(c7ccc8c(c7)C(=O)N(C7CCC(=O)NC7=O)C8=O)C6)CC5)cc4C(F)(F)F)C3=O)c2)COC1` (stereo not drawn) [Example 128, 2-(2,6-dioxopiperidin-3-yl)-5-(3-{1-[2-(3-{3-[(4-methyl-4H-1,2,4-triazol-3-yl)methyl]oxetan-3-yl}phenyl)-3-oxo-7-(trifluoromethyl)-2,3-dihydro-1H-isoindol-5-yl]piperidin-4-yl}azetidin-1-yl)-2,3-dihydro-1H-isoindole-1,3-dione] showed a DC50 (Cbl-b [1]) of over 500 nM and a DC50 (Cbl-b [2]) of over 500 nM.
For `Cn1cnnc1CC1(c2cccc(N3Cc4c(cc(N5CC(C6CCN(c7ccc8c(c7)C(=O)N(C7CCC(=O)NC7=O)C8=O)CC6)C5)cc4C(F)(F)F)C3=O)c2)COC1` (stereo not drawn) [Example 129, 2-(2,6-dioxopiperidin-3-yl)-5-(4-{1-[2-(3-{3-[(4-methyl-4H-1,2,4-triazol-3-yl)methyl]oxetan-3-yl}phenyl)-3-oxo-7-(trifluoromethyl)-2,3-dihydro-1H-isoindol-5-yl]azetidin-3-yl}piperidin-1-yl)-2,3-dihydro-1H-isoindole-1,3-dione], the DC50 (Cbl-b [1]) was 50 to 500 nM and the DC50 (Cbl-b [2]) was over 500 nM.
